Test results from patent US20210109080A1, “Cell-Based Biosensor for Early Alzheimer's Disease Detection” (University of South Carolina, priority 2019, published 2021).
Where a SMILES comes first, the peptide text is derived from it. The star is where a group is joined. Cbz = O=C(OCc1ccccc1)*

Tested on: HBMVEC monolayers
Assay: FITC-BSA transendothelial transfer / permeability coefficient (Pe) across HBMVEC monolayers
Type: cell-based, human
Settings: 3 μM MG-132 pre-treatment 30 min, then 5 μM MIX 24 h
Description: HBMVEC monolayers were incubated alone (white circles), with 0.3-10 μM Aß aggregates (grey circles), or with TNF-α (positive control, black circles). (a) Following 24-h treatment, transfer of FITC-BSA from the apical to basolateral chamber was monitored via florescence. Error bars represent SEM, n=3. Increased permeability is evidenced by a faster transfer rate, or steeper slope. Following treatment with 5 μM Aß aggregates, the transfer rate is increased by approximately 10%. (b) TEER was monitored following addition of treatments (indicated by arrow). […] In the absence of Aß aggregates, TEER maintains a plateau, decreasing by less than 8% over 7 days.
HBMVEC monolayers were incubated alone (CONT, white circles), with Aß monomer (MON, diamonds), with Aß aggregate mixture containing small aggregates (MIX, circles), or with Aß fibrils (FIB, triangles). (a) Using FITC-BSA transfer rates, Pe was determined after 24-h treatment with Aß concentrations of 5 μM (white bars) and 10 μM (black bars). […] (b) TEER was monitored following addition of treatments at a concentration of 5 μM (indicated by arrow).
Pe is determined from the transfer rate of FITC-BSA and reported relative to untreated monolayers. […]
(a) Confluent HBMVEC monolayers were incubated for 30 min with 100 pM, 1 nM, 10 nM, or 1 μM isolated small soluble Aß aggregates (SOL) (RH=43-54 nm). […] Using FITC-BSA transfer rates, Pe was determined.

## CC(C)C[C@@H](C=O)NC(=O)[C@H](CC(C)C)NC(=O)[C@H](CC(C)C)NC(=O)OCc1ccccc1 [MG-132] (Cbz-Leu-Leu-Leu-aldehyde)
  effect on Aß-induced increase in Pe: Abrogation of the Aß-induced increase in Pe
